In patent US20100152531A1, “IMPLANTABLE MEDICAL DEVICE FOR DRUG DELIVERY AND METHOD OF USE” (Paracor Medical, Inc., priority 2008, published 2010):
Values joined by “and” are separate entries in the source; they are usually repeats but may differ in a detail not shown here. Identical values can stand only once. Like-named read-outs stand apart in the source and are kept apart here. One block for each compound: values may come before it.

Columns and labels:
mice with aortic banding = conditions: mouse, in vivo; cited from earlier work
[1] = oral, cited from earlier work
coronaries of pigs = conditions: delivered intrapericardially; cited from earlier work
[2] = Half life of NONOates (diazeniumdiolates) at 37° C., pH 7.4; assay type: physicochemical
Source text: Diazeniumdiolates, more commonly referred to as NONOates, have been extremely useful in the investigation of the biological effects of nitric oxide (NO) and related nitrogen oxides. […] FIG. 55 illustrates an exemplary chemical reaction.

rats with MI = conditions: cited from earlier work
[3] = cited from earlier work
aldosterone receptors = biological target: T1, aldosterone receptors (Homo sapiens, UniProt P08235); conditions: cited from earlier work
T1 construct: host or cells: heart failure patients (in vivo)
T1 sequence (P08235 1-984): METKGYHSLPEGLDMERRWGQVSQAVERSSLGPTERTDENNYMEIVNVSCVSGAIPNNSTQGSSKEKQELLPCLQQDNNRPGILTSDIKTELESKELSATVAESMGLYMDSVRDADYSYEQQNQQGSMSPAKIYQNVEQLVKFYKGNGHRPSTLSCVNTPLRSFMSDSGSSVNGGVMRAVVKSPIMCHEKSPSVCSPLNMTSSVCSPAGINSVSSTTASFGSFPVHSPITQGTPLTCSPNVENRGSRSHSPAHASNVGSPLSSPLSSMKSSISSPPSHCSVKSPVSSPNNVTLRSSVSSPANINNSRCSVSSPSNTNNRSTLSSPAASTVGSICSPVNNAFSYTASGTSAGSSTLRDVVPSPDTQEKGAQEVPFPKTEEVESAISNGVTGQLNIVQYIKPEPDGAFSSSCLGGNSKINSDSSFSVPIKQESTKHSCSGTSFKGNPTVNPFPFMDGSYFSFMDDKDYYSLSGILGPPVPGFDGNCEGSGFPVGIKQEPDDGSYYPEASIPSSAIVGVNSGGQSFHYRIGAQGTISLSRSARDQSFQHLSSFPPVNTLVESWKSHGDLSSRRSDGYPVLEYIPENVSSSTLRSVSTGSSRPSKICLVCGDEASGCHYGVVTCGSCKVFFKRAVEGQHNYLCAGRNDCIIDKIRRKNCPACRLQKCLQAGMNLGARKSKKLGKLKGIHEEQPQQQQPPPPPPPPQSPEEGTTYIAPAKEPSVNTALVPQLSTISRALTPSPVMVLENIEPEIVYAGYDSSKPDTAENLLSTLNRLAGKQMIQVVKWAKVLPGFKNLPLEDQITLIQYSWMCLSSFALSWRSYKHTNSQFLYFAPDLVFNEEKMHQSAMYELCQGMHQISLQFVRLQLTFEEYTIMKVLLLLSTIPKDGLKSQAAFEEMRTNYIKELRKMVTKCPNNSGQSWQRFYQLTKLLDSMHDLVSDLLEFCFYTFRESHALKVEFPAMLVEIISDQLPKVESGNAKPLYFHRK

Structure (SMILES): CO[C@H]1C[C@@H]2CC[C@@H](C)[C@@](O)(O2)C(=O)C(=O)N2CCCC[C@H]2C(=O)O[C@H]([C@H](C)C[C@@H]2CC[C@@H](O)[C@H](OC)C2)CC(=O)[C@H](C)/C=C(\C)[C@@H](O)[C@@H](OC)C(=O)[C@H](C)C[C@H](C)/C=C/C=C/C=C/1C [sirolimus]
- body weight, lung weight, or liver weight (mice with aortic banding): without affecting
- patients who experienced side effects (mild to severe) ([1]; 2 mg daily): 43%
- patients who experienced side effects (mild to severe) ([1]; 5 mg daily): 66%

Structure (SMILES): CC(=O)O[C@H]1C(=O)[C@@]2(C)[C@H]([C@H](OC(=O)c3ccccc3)[C@]3(O)C[C@H](OC(=O)[C@H](O)[C@@H](NC(=O)c4ccccc4)c4ccccc4)C(C)=C1C3(C)C)[C@]1(OC(C)=O)CO[C@@H]1C[C@@H]2O [Paclitaxel]
- neointimal proliferation in the coronaries in response to balloon injury (coronaries of pigs): inhibit neointimal proliferation

Structure (SMILES): CO[C@H]1C[C@@H]2CC[C@@H](C)[C@@](O)(O2)C(=O)C(=O)N2CCCC[C@H]2C(=O)O[C@H]([C@H](C)C[C@@H]2CC[C@@H](OCCO)[C@H](OC)C2)CC(=O)[C@H](C)/C=C(\C)[C@@H](O)[C@@H](OC)C(=O)[C@H](C)C[C@H](C)/C=C/C=C/C=C/1C [everolimus]
- EF (rats with MI; compared to untreated MI rats): significant increase
- LV end-diastolic diameter (rats with MI; compared to untreated MI rats): significant reduction
- reduction of myocyte size (rats with MI; rat, in vivo): 33%

Structure (SMILES): CC(=O)S[C@@H]1CC2=CC(=O)CC[C@]2(C)[C@H]2CC[C@@]3(C)[C@@H](CC[C@@]34CCC(=O)O4)[C@H]12 [spironolactone]
- blood pressure decrease ([3]; doses above 150 mg): no additional decrease
- incidence of gynecomastia ([3]; doses of 50 mg or less): 8.9%
- incidence of gynecomastia ([3]; doses of 150 mg or higher): 52.2%
- blood pressure decrease ([3]; doses of 25 to 50 mg): 5.3% and 8.5%
- blood pressure decrease ([3]; doses of 75 to 100 mg): 12.4% and 12.2%
- blocking the aldosterone receptors and decreasing atrial natriuretic peptide concentrations (aldosterone receptors; dose of 12.5 to 25 mg daily): effective
- incidence of serious hyperkalemia (aldosterone receptors; high-risk heart failure patients, with ACE inhibitor): low incidence
- risk of both morbidity and death (aldosterone receptors; high-risk heart failure patients): significantly reduced
- daily dose at which serious hyperkalemia occurs most frequently (aldosterone receptors; in vivo): ≥ 50 mg

Structure (SMILES): COCON=[N+]([O-])N1CCNCC1 [Compound 7, O^2-Methozymethyl 1-(Piperazin-1-yl)diazen-1-ium-1,2-diolate]
- Half Life 37° C., pH 7.4 [2]: 17 days

Further lines, results first:

- Half Life 37° C., pH 7.4 [2]: 0.2 min
Structure (SMILES): CN(C)[N+]([O-])=N[O-].[Na+] [Compound 1, Sodium 1-(N,N-Dimthylanimo)diazen-1-ium-1,2-dilate]

- Half Life 37° C., pH 7.4 [2]: 2 min
Structure (SMILES): CN(C)/[N+]([O-])=N/[O-].[Na+] [Compound 2, Sodium (Z)-1-(N,N-Dimthylanimo)diazen-1-ium-1,2-dilate]

- Half Life 37° C., pH 7.4 [2]: 3 hrs
Structure (SMILES): NCCCN(CCCN)/[N+]([O-])=N/O [Compound 4]

- half-life ([2]; buffer): 20 h
Structure (SMILES): NCCN(CCN)[N+]([O-])=NO [Compound 5, 1-[N-(2-Aminoethyl)-N-(2-ammonioethyl)amino]diazen-1-ium-1,2-diolate]
